Assay results from patent publication US6680373B2, “P2U2 receptor antibodies” (Millennium Pharmaceuticals, Inc., priority 1995, dated 2004).

Molecular target: T1, P2U2 receptor (Homo sapiens, UniProt Q9BXA5)
T1 construct: The native human receptor was produced in oocytes by cloning the 500 bp 5′ truncation of the full-length kidney cDNA clone; expressed in transfected cells; host or cells: Xenopus laevis oocytes injected with capped in vitro transcribed RNA (pcDNA3 template, T7 polymerase)
T1 sequence (Q9BXA5 1-334): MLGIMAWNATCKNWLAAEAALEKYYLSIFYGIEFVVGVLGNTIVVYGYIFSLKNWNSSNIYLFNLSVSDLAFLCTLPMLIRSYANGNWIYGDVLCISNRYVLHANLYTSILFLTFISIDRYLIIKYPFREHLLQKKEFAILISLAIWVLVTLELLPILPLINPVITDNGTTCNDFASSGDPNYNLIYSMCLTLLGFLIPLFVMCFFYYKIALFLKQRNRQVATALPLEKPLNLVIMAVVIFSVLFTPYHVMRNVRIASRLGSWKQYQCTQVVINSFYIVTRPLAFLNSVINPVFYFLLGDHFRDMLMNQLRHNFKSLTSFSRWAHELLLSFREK
Experiment: Two-electrode voltage clamp of agonist-induced chloride currents in Xenopus oocytes injected with P2U2 receptor cRNA
Type: cell-based
Details: receptor expressed in Xenopus oocytes; for order of specificity as agonists of the P2U2 receptor: potencies close in value, a mere five-fold difference
Experimental: As indicated above, receptor activation can also be measured by means of the two-electrode voltage clamp assay. In this assay, agonist-induced inward chloride currents are measured in voltage-clamped oocytes that express the P2U2 receptor. The technique suitable for use in the instant invention is described by Julius, et al, Science 241:558-563 (1988). The native human receptor was produced in oocytes by cloning the 500 bp 5' truncation of the full-length kidney cDNA clone into the mammalian expression vector pcDNA3 (Invitrogen). Linearized DNA was used as a template for T7 polymerase (Ambion, Promega) for generation of capped in vitro transcribed mRNA following the suppliers specifications. Adult female Xenopus laevis were anesthetized in […] 3-aminobenzoic acid ethyl ester for 10 minutes and 1 or 2 ovarian lobes were removed, followed by immediate suturing of the incisions. Oocytes were defolliculated at room temperature with collagenase (2 mg/ml) in Ca^+2-free medium (OR-2) for 1-2 hr. Oocytes were stored at […] in ND-96 (96 mM sodium chloride, 2 mM potassium chloride, 1.8 mM calcium chloride, 1 mM magnesium chloride, 5 mM HEPES (N[2-hydroxyethylpiperazine-N'[2-ethanesulfonic acid) with penicillin/streptomycin and injected with 50 nl RNA (1-2 μg/μl) 18-24 h after removal of the oocytes. Before recording, injected oocytes were stored at 18° C. for 2-3 days with daily media changes. A two-electrode voltage clamp (Axon Axoclamp2B) was used to measure agonist-induced currents from individual oocytes. Electrodes were pulled to […] of 0.2-1 MΩ and filled with 3M KCl. Recordings were made at room temperature in ND96 from oocytes clamped at -70 mV using different agonist concentrations. Water-injected oocytes were used as a control.

activation of the P2U2 receptor	order of specificity as agonists of the P2U2 receptor	Structure (SMILES)
activated	UTP>UDP>ADP>ATP	O=c1ccn([C@@H]2O[C@H](COP(=O)(O)OP(=O)(O)O)[C@@H](O)[C@H]2O)c(=O)[nH]1 [UDP]
activated	UTP>UDP>ADP>ATP	O=c1ccn([C@@H]2O[C@H](COP(=O)(O)OP(=O)(O)OP(=O)(O)O)[C@@H](O)[C@H]2O)c(=O)[nH]1 [UTP]
activated	UTP>UDP>ADP>ATP	Nc1ncnc2c1ncn2[C@@H]1O[C@H](COP(=O)(O)OP(=O)(O)OP(=O)(O)O)[C@@H](O)[C@H]1O [ATP]
activated	UTP>UDP>ADP>ATP	Nc1ncnc2c1ncn2[C@@H]1O[C@H](COP(=O)(O)OP(=O)(O)O)[C@@H](O)[C@H]1O [ADP]
